In patent publication US8853213B2, “Bicyclic compound for modulating G protein-coupled receptors” (Hanmi Pharm. Co., Ltd, priority 2011, dated 2014):

molecular target: T1, GPR119 (Homo sapiens, UniProt Q8TDV5); test: Controlling Effect of GPR119 in CRE-bla CHO-K1 Cells (EC50); format: cell-based; conditions: GPR119 CRE-bla CHO-K1 cell line, 5 hr incubation with compound, β-lactamase LiveBLAzer-FRET B/G readout; read-out: controlling effect against GPR119 in CRE-bla CHO-K1 cell line (EC50)
T1 construct: host or cells: CHO-K1 (CRE-bla reporter, doxycycline-induced)
T1 sequence (Q8TDV5 1-335): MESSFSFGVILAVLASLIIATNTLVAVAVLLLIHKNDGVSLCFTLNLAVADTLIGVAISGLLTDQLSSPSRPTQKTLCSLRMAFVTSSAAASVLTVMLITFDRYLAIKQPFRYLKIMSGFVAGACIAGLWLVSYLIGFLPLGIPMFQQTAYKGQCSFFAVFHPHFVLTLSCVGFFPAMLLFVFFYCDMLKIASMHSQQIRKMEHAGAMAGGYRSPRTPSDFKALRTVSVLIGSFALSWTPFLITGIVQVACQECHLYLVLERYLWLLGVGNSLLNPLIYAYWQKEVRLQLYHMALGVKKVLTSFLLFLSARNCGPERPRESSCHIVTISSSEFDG
Method in brief: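 CHO-K1 cells carrying GPR119 and a CRE-β-lactamase reporter, induced with doxycycline for 16-20 h at 37° C, then exposed to compounds in 10-fold dilutions for 5 h. CCF4-AM FRET substrate added for 2 h at room temperature; blue/green fluorescence (409 ex, […]) read and EC50 derived.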

SMILES	EC50
CCc1cnc(N2CCC(Oc3ncnc4c(-c5ccc(C#N)cc5)cn(C)c34)CC2)nc1 [Example 43, 4-{4-[1-(5-ethylpyrimidin-2-yl)-piperidin-4-yloxy]-5-methyl-5H-pyrrolo[3,2-d]pyrimidin-7-yl}-benzonitrile]	> 1000 nM
CCN(c1ncnc2c(-c3ccc(S(C)(=O)=O)cc3)csc12)C1CCN(c2ccc(C(F)(F)F)cn2)CC1 [Example 115, Ethyl-[7-(4-methanesulfonyl-phenyl)-thieno[3,2-d]pyrimidin-4-yl]-(5′-trifluoromethyl-3,4,5,6-tetrahydro-2H-[1,2′]bipyridinyl-4-yl)amine]	> 1000 nM
CC(C)(C)C(=O)N1CCC(Oc2ncnc3c(-c4ccc(S(C)(=O)=O)cc4F)csc23)CC1 [Example 88, 1-(4-(7-(2-fluoro-4-methanesulfonyl-phenyl)thieno[3,2-d]pyrimidin-4-yloxy)piperidin-1-yl)-2,2-dimethylpropan-1-one]	< 100 nM
CS(=O)(=O)c1ccc(-c2csc3c(OC4CCN(c5nc(C6CCCCC6)no5)CC4)ncnc23)c(F)c1 [Example 79, 7-(2-fluoro-4-methanesulfonyl-phenyl)-4-[1-(3-cyclohexyl-[1,2,4]oxadiazol-5-yl)piperidin-4-yloxy]thieno[3,2-d]pyrimidine]	< 100 nM
CCc1cnc(N2CC[C@H](Oc3ncnc4c(-c5ccc(S(C)(=O)=O)cc5)cn(C)c34)C2)nc1 [Example 39, 4-[1-(5-ethylpyrimidin-2-yl)-pyrrolidin-3-yloxy]-7-(4-methanesulfonyl-phenyl)-5-methyl-5H-pyrrolo[3,2-d]pyrimidine]	100 to 1000 nM
COC(=O)c1ccc(-c2csc3c(OC4CCN(c5nc(C(C)C)no5)CC4)ncnc23)cc1 [Example 102, 4-{4-[1-(3-isopropyl-[1,2,4]oxadiazol-5-yl)-piperidin-4-yloxy]-thieno[3,2-d]pyrimidin-7-yl}-benzoic acid methylester]	100 to 1000 nM
CC(C)c1ccc(-c2cnc(N3CCC(Oc4ncnc5c(-c6ccc(S(C)(=O)=O)cc6F)csc45)CC3)nc2)cc1 [Example 86, 7-(2-fluoro-4-methanesulfonyl-phenyl)-4-{1-[5-(4-isopropylphenyl)-pyrimidin-2-yl)-piperidin-4-yloxy]-thieno[3,2-d]pyrimidine]	< 100 nM

Now from value to compound:

EC50	SMILES
< 100 nM	CCc1cnc(N2CCC(Oc3ncnc4c(-c5ccc(S(C)(=O)=O)cc5F)cn(CC)c34)CC2)nc1 [Example 33, 5-ethyl-4-(1-(5-ethylpyrimidin-2-yl)piperidin-4-yloxy)-7-(2-fluoro-4-methanesulfonyl-phenyl)-5H-pyrrolo[3,2-d]pyrimidine]
< 100 nM	CC(C)c1noc(N2CCC(Oc3ncnc4c(-c5ccc(S(=O)(=O)C6CC6)cc5)csc34)CC2)n1 [Example 104, 7-(4-cyclopropylsulfonyl-phenyl)-4-[1-(3-isopropyl-[1,2,4]oxadiazol-5-yl)-piperidin-4-yloxy]-thieno[3,2-d]pyrimidine]
100 to 1000 nM	CS(=O)(=O)c1ccc(-c2csc3c(OC4CCN(C#N)CC4)ncnc23)c(F)c1 [Example 75, 4-(7-(2-fluoro-4-methanesulfonyl-phenyl)thieno[3,2-d]pyrimidin-4-yloxy)piperidin-1-carbonitrile]
> 1000 nM	CCc1cnc(N2CCC(N(C)c3ncnc4c(-c5ccc(S(C)(=O)=O)cc5)csc34)CC2)nc1 [Example 114, [1-(5-ethylpyrimidin-2-yl)-piperidin-4-yl]-[7-(4-methanesulfonyl-phenyl)-thieno[3,2-d]pyrimidin-4-yl]-methylamine]
100 to 1000 nM	Cn1cc(-c2ccc(S(C)(=O)=O)cc2)c2ncnc(OC3CCN(C(=O)NC(C)(C)C)CC3)c21 [Example 40, 4-[7-(4-methanesulfonyl-phenyl)-5-methyl-5H-pyrrolo[3,2-d]pyrimidin-4-yloxy]piperidin-1-carboxylic acid tert-butylamide]
